ChEMBL document CHEMBL6134781, “In vitro identification of oridonin hybrids as potential anti-TNBC agents inducing cell cycle arrest and apoptosis by regulation of p21, γH2AX and cleaved PARP” (RSC Med Chem, 2024)

Legend:
MDA-MB-231 [1] = assay: Induction of cell cycle arrest in human MDA-MB-231 cells assessed as accumulation at G2/M phase incubated for 16 hrs by PI staining based flow cytometry; type: functional; conditions: dose 1-3 µM
MDA-MB-468 [2] = assay: Induction of cell cycle arrest in human MDA-MB-468 cells assessed as decrease in accumulation at S phase incubated for 16 hrs by PI staining based flow cytometry; type: functional; conditions: dose 1-3 µM
MDA-MB-231 [3] = assay: Induction of apoptosis in human MDA-MB-231 cells assessed as late apoptotic cells at 1 uM incubated for 16 hrs by Annexin V-FITC/PI staining based flow cytometry (reference value: 4.62 %); type: functional
MDA-MB-231 [4] = assay: Induction of apoptosis in human MDA-MB-231 cells assessed as necrotic cells at 1 uM incubated for 16 hrs by Annexin V-FITC/PI staining based flow cytometry (reference value: 3.89 %); type: functional
MDA-MB-231 [5] = assay: Induction of apoptosis in human MDA-MB-231 cells assessed as late apoptotic cells at 3 uM incubated for 16 hrs by Annexin V-FITC/PI staining based flow cytometry (reference value: 4.62 %); type: functional
MDA-MB-231 [6] = assay: Induction of apoptosis in human MDA-MB-231 cells assessed as necrotic cells at 3 uM incubated for 16 hrs by Annexin V-FITC/PI staining based flow cytometry (reference value: 3.89 %); type: functional
MDA-MB-468 [7] = assay: Induction of apoptosis in human MDA-MB-468 cells assessed as early apoptotic cells at 3 uM incubated for 24 hrs by Annexin V-FITC/PI staining based flow cytometry (reference value: 3.17 %); type: functional
MDA-MB-468 [8] = assay: Induction of apoptosis in human MDA-MB-468 cells assessed as late apoptotic cells at 3 uM incubated for 24 hrs by Annexin V-FITC/PI staining based flow cytometry (reference value: 3.84 %); type: functional
HCC1937 = assay: Induction of apoptosis in human HCC1937 cells assessed as viable cells at 1 uM incubated for 24 hrs by Annexin V-FITC/PI staining based flow cytometry (reference value: 97.2 %); type: functional; conditions: read-out: Activity
HCC1806 [9] = assay: Induction of apoptosis in human HCC1806 cells assessed as viable cells at 1 uM incubated for 24 hrs by Annexin V-FITC/PI staining based flow cytometry (reference value: 95.4 %); type: functional; conditions: read-out: Activity
HCC1806 [10] = assay: Induction of apoptosis in human HCC1806 cells assessed as early apoptotic cells at 1 uM incubated for 24 hrs by Annexin V-FITC/PI staining based flow cytometry (reference value: 3.06 %); type: functional
HCC1806 [11] = assay: Induction of apoptosis in human HCC1806 cells assessed as necrotic cells at 1 uM incubated for 24 hrs by Annexin V-FITC/PI staining based flow cytometry (reference value: 0.049 %); type: functional
HCC1806 [12] = assay: Induction of apoptosis in human HCC1806 cells assessed as early apoptotic cells at 3 uM incubated for 24 hrs by Annexin V-FITC/PI staining based flow cytometry (reference value: 3.06 %); type: functional
HCC1806 [13] = assay: Induction of apoptosis in human HCC1806 cells assessed as late apoptotic cells at 3 uM incubated for 24 hrs by Annexin V-FITC/PI staining based flow cytometry (reference value: 1.48 %); type: functional
HCC1806 [14] = assay: Induction of apoptosis in human HCC1806 cells assessed as necrotic cells at 3 uM incubated for 24 hrs by Annexin V-FITC/PI staining based flow cytometry (reference value: 0.049 %); type: functional
MDA-MB-468 [15] = assay: Induction of apoptosis in human MDA-MB-468 cells assessed as increase in cleaved PARP-1 level incubated for 24 hrs by Western blot analysis; type: functional, cell-based; conditions: dose 1-3 µM
HCC1806 [16] = assay: Induction of apoptosis in human HCC1806 cells assessed as increase in cleaved PARP-1 level incubated for 24 hrs by Western blot analysis; type: functional, cell-based; conditions: dose 1-3 µM
MDA-MB-231 [17] = assay: Induction of cell cycle arrest in human MDA-MB-231 cells assessed as increase in p21 level incubated for 16 hrs by Western blot analysis; type: functional, cell-based; conditions: dose 1-3 µM
MDA-MB-468 [18] = assay: Induction of DNA damage in human MDA-MB-468 cells assessed as increase in gamma-H2AX level incubated for 24 hrs by Western blot analysis; type: functional, cell-based; conditions: dose 1-3 µM
HCC1806 [19] = assay: Induction of DNA damage in human HCC1806 cells assessed as increase in gamma-H2AX level incubated for 24 hrs by Western blot analysis; type: functional, cell-based; conditions: dose 1-3 µM

C=C1C(=O)[C@]23[C@H](OC(=O)C45CC6CC(CC(C6)C4)C5)[C@H]1CC[C@H]2[C@@]12CO[C@]3(O)[C@@H](O)[C@@H]1C(C)(C)CC[C@@H]2O
Activity (MDA-MB-231 [1]): Dose-dependent-effect | Activity (MDA-MB-468 [2]): Dose-dependent-effect | Activity (MDA-MB-231 [3]): 1.92% | Activity (MDA-MB-231 [4]): 0.32% | Activity (MDA-MB-231 [5]): 20.4% | Activity (MDA-MB-231 [6]): 4.46% | Activity (MDA-MB-468 [7]): 30% | Activity (MDA-MB-468 [8]): 3.22% | viability at 1 µM (HCC1937): 96.1% | viability at 1 µM (HCC1806 [9]): 92.2% | Activity (HCC1806 [10]): 4.92% | Activity (HCC1806 [11]): 0.088% | Activity (HCC1806 [12]): 11% | Activity (HCC1806 [13]): 14.2% | Activity (HCC1806 [14]): 0.091% | Activity (MDA-MB-468 [15]): Dose-dependent-effect | Activity (HCC1806 [16]): Dose-dependent-effect | Activity (MDA-MB-231 [17]): Dose-dependent-effect | Activity (MDA-MB-468 [18]): Dose-dependent-effect | Activity (HCC1806 [19]): Dose-dependent-effect
